Measurements from US10654834B2 (Venenum Biodesign, LLC, priority 2016, dated 2020).

Key:
human TGR5 receptor = target: T1, human TGR5 receptor (Homo sapiens, UniProt Q8TDU6); assay: Human TGR5 cAMP production assay (hTGR5-CHO cells, DiscoveRx cAMP XS+ kit); assay type: cell-based; conditions: luminescent cAMP assay, read-out: Human TGR5 Lum. cAMP Activity (EC50)
T1 construct: host or cells: CHO-K1 (hTGR5-CHO)
T1 sequence (Q8TDU6 1-330): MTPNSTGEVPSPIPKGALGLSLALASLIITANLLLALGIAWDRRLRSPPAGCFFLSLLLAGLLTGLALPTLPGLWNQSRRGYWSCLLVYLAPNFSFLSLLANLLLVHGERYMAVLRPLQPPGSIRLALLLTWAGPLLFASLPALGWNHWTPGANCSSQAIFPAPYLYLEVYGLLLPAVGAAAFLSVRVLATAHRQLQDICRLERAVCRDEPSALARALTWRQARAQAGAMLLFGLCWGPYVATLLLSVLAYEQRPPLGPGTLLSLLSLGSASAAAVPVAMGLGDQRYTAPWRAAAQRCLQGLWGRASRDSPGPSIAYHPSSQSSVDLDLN
Procedure, shortened: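 CHO-K1 cells stably expressing hTGR5, in PBS with IBMX and cAMP antibody, treated with half-log compound dilutions for 1 h at room temperature. cAMP measured by enzyme-fragment complementation luminescence after overnight detection; EC50 values reported.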

Mouse STC-1 cells = assay: STC-1 GLP-1 assay (GLP-1 secretion); assay type: cell-based; conditions: Mouse STC-1 cells, GLP-1 secretion, 2 h; read-out: Mouse STC-1 HTRF GLP-1 Activity (EC50)
Procedure: Compounds of the present invention were evaluated for their ability to induce GLP-1 production in mouse intestinal neuroendocrine tumor cells.
Mouse STC-1 cells were cultured and maintained in high glucose DMEM (Sigma #5796) supplemented with 15% horse serum, 5% Fetal Bovine Serum (FBS), 1%° penicillin/streptomycin, and 2 mM L-alanine L-glutamine (GlutaMax). Two days prior to analysis of GLP-1 secretion cells were harvested using Accutase (Sigma), spun down then resuspended in high glucose DMEM media containing 2 mM L-alanine L-glutamine (GlutaMax), 10% charcoal-dextran stripped FBS, and 50 μg/mL Gentamicin, at a density of 100,000° cells/mL. 100 μL of cell suspension was added to each well of a 96-well Poly-D-Lysine coated culture plate (Sigma; cat #2382493) and was incubated at 37° C. with 5% CO2.
Compounds were initially diluted in 100% DMSO (12-point serial dilution by half logs) in a 96-well plate and then were further diluted 1:500 in Hanks' Balanced Salt Solution (HBSS) containing protease inhibitor cocktail, DPP-IV inhibitor, and 0.1% fatty acid free bovine serum albumin. On the day of the experiment cells were washed once with HBSS. After wash, 100 μL of test compound was added to each well. The plate was incubated at 37° C. with 5% CO2 for 2° h. Supernatants were collected and GLP-1 secretion was measured using the Cisbio™ Active GLP-1 HTRF Assay Kit (CisBio). Briefly, Anti-GLP-1-d2 conjugate and Anti-GLP-1 Terbium Cryptate conjugate stock solutions were prepared as per kit instructions. The two solutions were pre-mixed and 10 μL were transferred to a 384-well low volume plate (Greiner; cat #784075). 10 μL of collected supernatants were added to wells already containing the conjugate solution. The plate was covered and incubated at room temperature overnight. The plate was read on an Envision™ plate reader (PerkinElmer).
In Table 53, EC50 values were obtained from the STC-1 GLP-1 production assay for compounds of the present invention are summarized.

mouse TGR5 receptor [1] = target: T2, mouse TGR5 receptor (Mus musculus, UniProt Q80SS6); assay: Mouse TGR5 luminescent cAMP production assay (HEK293-EBNA cells, DiscoveRx cAMP XS+ kit); assay type: cell-based; conditions: HEK293-EBNA cells overexpressing mouse TGR5, luminescent cAMP assay; read-out: Mouse TGR5 Lum. cAMP Activity (EC50)
T2 construct: host or cells: HEK293-EBNA (293 c18, ATCC CRL10852)
T2 sequence (Q80SS6 1-329): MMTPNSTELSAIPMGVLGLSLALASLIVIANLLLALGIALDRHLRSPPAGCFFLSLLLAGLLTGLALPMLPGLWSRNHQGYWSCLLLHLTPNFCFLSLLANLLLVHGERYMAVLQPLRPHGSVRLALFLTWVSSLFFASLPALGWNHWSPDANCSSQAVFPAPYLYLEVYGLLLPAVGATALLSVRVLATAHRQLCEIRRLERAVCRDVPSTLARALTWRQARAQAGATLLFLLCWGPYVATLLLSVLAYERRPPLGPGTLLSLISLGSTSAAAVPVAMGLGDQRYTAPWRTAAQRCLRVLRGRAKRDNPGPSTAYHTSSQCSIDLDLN
Procedure, shortened: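 HEK293-EBNA cells stably expressing mouse TGR5, resuspended in serum-free DMEM with 500 μM IBMX, were premixed 20 min with cAMP antibody, then exposed to half-log compound dilutions for 1 h at room temperature. cAMP was read by luminescent enzyme-fragment complementation (cAMP XS+) after overnight incubation; EC50 derived.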

mouse TGR5 receptor [2] = target: T2, mouse TGR5 receptor; assay: Mouse TGR5 HTRF cAMP production assay (HEK293-EBNA cells, Cisbio cAMP HiRange kit); assay type: cell-based; conditions: HEK293-EBNA cells overexpressing mouse TGR5, HTRF cAMP assay
Procedure, shortened: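 HEK293-EBNA cells stably expressing mouse TGR5 (episomal vector) were suspended in serum-free DMEM with 500 μM IBMX and exposed to 12-point half-log compound dilutions for 1 h at room temperature. cAMP was detected by HTRF (d2-cAMP/anti-cAMP cryptate, 1 h, room temperature), giving EC50 from duplicates.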

[3] = Pharmacokinetic profile in mice after oral gavage; assay type: in vivo, mouse; conditions: mouse; fasted male Hilltop mice, 10 mg/kg oral gavage, plasma; read-out: Cmax
Procedure, shortened: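 Fasted 8-week male Hilltop mice given 10 mg/kg orally in 20% PEG400/80% 0.5% CMC + 0.25% Tween-80. EDTA plasma sampled 0-4 h, measured by LC-MS/MS (MRM, positive ion); Cmax and AUC derived non-compartmentally, values being means of three mice.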

| Compound | EC50 (human TGR5 receptor) | EC50 (Mouse STC-1 cells) | EC50 (mouse TGR5 receptor [1]) | EC50 (mouse TGR5 receptor [2]) | Cmax [3] |
| --- | --- | --- | --- | --- | --- |
| O=C(NCCc1ccc(C(F)(F)F)cc1)[C@@H]1CCCN1c1cc(N2CCC(CO)CC2)nc(C(F)(F)F)n1 [Compound 2, (S)-1-(6-(4-(hydroxymethyl)piperidin-1-yl)-2-(trifluoromethyl)pyrimidin-4-yl)-N-(4-(trifluoromethyl)-phenethyl)pyrrolidine-2-carboxamide] | < 100 nM | 100 to 999 nM | < 100 nM | – | – |
| CN(C)CC1CCN(c2cc(N3CCC[C@H]3C(=O)NCCc3ccc(C#N)cc3)nc(C(F)(F)F)n2)CC1 [Compound 19] | 100 to 999 nM | 1000 to 30000 nM | < 100 nM | – | – |
| O=C(NCCc1ccc(C(F)(F)F)cc1)[C@@H]1CCCN1c1cc(OC2CCOCC2)nc(C(F)(F)F)n1 [Compound 40, (S)-1-(6-((tetrahydro-2H-pyran-4-yl)oxy)-2-(trifluoromethyl)pyrimidin-4-yl)-N-(4-(trifluoromethyl)phenethyl)pyrrolidine-2-carboxamide] | < 100 nM | 100 to 999 nM | < 100 nM | – | – |
| N#Cc1ccc(CCNC(=O)[C@@H]2CCCN2c2cc(OC3CCOCC3)nc(C(F)(F)F)n2)cc1 [Compound 41, (S)-N-(4-cyanophenethyl)-1-(6-((tetrahydro-2H-pyran-4-yl)oxy)-2-(trifluoromethyl)pyrimidin-4-yl)pyrrolidine-2-carboxamide] | < 100 nM | 100 to 999 nM | < 100 nM | – | – |
| Cc1ccc(-c2cc(N3CCC[C@H]3C(=O)NCCc3ccc(C#N)cc3)nc(C(F)(F)F)n2)s1 [Compound 170, (S)-N-(4-cyanophenethyl)-1-(6-(5-methylthiophen-2-yl)-2-(trifluoromethyl)pyrimidin-4-yl)pyrrolidine-2-carboxamide] | 100 to 999 nM | – | 100 to 999 nM | 100 to 999 nM | – |
| Cc1csc(-c2cc(N3CCC[C@H]3C(=O)NCCc3ccc(C#N)cc3)nc(C(F)(F)F)n2)c1 [Compound 171, (S)-N-(4-cyanophenethyl)-1-(6-(4-methylthiophen-2-yl)-2-(trifluoromethyl)pyrimidin-4-yl)pyrrolidine-2-carboxamide] | 100 to 999 nM | – | 100 to 999 nM | < 100 nM | – |
| N#Cc1ccc(CCNC(=O)[C@@H]2CCCN2c2cc(-c3cc4ccccc4s3)nc(C(F)(F)F)n2)cc1 [Compound 173, (S)-1-(6-(benzo[b]thiophen-2-yl)-2-(trifluoromethyl)pyrimidin-4-yl)-N-(4-cyanophenethyl)pyrrolidine-2-carboxamide] | 100 to 999 nM | – | 100 to 999 nM | 100 to 999 nM | – |
| N#Cc1ccc(CCNC(=O)[C@@H]2C[C@@H](O)CN2c2cc(N3CCC(CCO)CC3)nc(C(F)(F)F)n2)cc1 [Compound 210, (2S,4R)—N-(4-cyanophenethyl)-4-hydroxy-1-(6-(4-(2-hydroxyethyl)piperidin-1-yl)-2-(trifluoromethyl)pyrimidin-4-yl)pyrrolidine-2-carboxamide] | 100 to 999 nM | – | 100 to 999 nM | – | 54 ng/mL |
| CN(C)c1cc(N2CCC[C@@H](C(=O)NCCc3ccc(C(F)(F)F)cc3)C2)nc(C(F)(F)F)n1 [Compound 322, (R)-1-(6-(dimethylamino)-2-(trifluoromethyl)pyrimidin-4-yl)-N-(4-(trifluoromethyl)phenethyl)piperidine-3-carboxamide] | 100 to 999 nM | – | 1000 to 30000 nM | – | – |
| O=C(NCCc1ccc(C(F)(F)F)cc1)[C@@H]1CCCN(c2cc(NCCO)nc(C(F)(F)F)n2)C1 [Compound 323, (R)-1-(6-((2-hydroxyethyl)amino)-2-(trifluoromethyl)pyrimidin-4-yl)-N-(4-(trifluoromethyl)phenethyl)piperidine-3-carboxamide] | 100 to 999 nM | – | 100 to 999 nM | – | – |
| CC(=O)NCCNc1cc(N2CCC[C@@H](C(=O)NCCc3ccc(C(F)(F)F)cc3)C2)nc(C(F)(F)F)n1 [Compound 324, (R)-1-(6-((2-acetamidoethyl)amino)-2-(trifluoromethyl)pyrimidin-4-yl)-N-(4-(trifluoromethyl)phenethyl)piperidine-3-carboxamide] | 1000 to 30000 nM | – | 100 to 999 nM | – | – |
| O=C(NCCc1ccc(C(F)(F)F)cc1)[C@@H]1CCCN(c2cc(NCCN3CCOCC3)nc(C(F)(F)F)n2)C1 [Compound 325, (R)-1-(6-((2-morpholinoethyl)amino)-2-(trifluoromethyl)pyrimidin-4-yl)-N-(4-(trifluoromethyl)phenethyl)-piperidine-3-carboxamide] | 100 to 999 nM | – | < 100 nM | – | – |
| O=C(NCCc1ccc(C(F)(F)F)cc1)[C@@H]1CCCN(c2cc(NC3CCOCC3)nc(C(F)(F)F)n2)C1 [Compound 326, (R)-1-(6-((tetrahydro-2H-pyran-4-yl)amino)-2-(trifluoromethyl)-pyrimidin-4-yl)-N-(4-(trifluoromethyl)phenethyl)piperidine-3-carboxamide] | 100 to 999 nM | – | < 100 nM | – | – |
| O=C(NCCc1ccc(C(F)(F)F)cc1)[C@@H]1CCCN(c2cc(N3CCNCC3)nc(C(F)(F)F)n2)C1 [Compound 327, (R)-1-(6-(piperazin-1-yl)-2-(trifluoromethyl)pyrimidin-4-yl)-N-(4-(trifluoromethyl)phenethyl)piperidine-3-carboxamide] | 1000 to 30000 nM | – | 100 to 999 nM | – | – |
| N#Cc1ccc(CCNC(=O)[C@@H]2CCCN(c3cc(OC4CCOCC4)nc(C(F)(F)F)n3)C2)cc1 [Compound 334] | < 100 nM | – | < 100 nM | – | – |
| O=C(NCCc1ccc(C(F)(F)F)cc1)[C@@H]1CCCN(c2cc(OC3CCOCC3)nc(C(F)(F)F)n2)C1 [Compound 335, (R)-1-(6-((tetrahydro-2H-pyran-4-yl)oxy)-2-(trifluoromethyl)pyrimidin-4-yl)-N-(4-(trifluoromethyl)-phenethyl)piperidine-3-carboxamide] | 100 to 999 nM | – | 100 to 999 nM | – | – |
| COCC(=O)N1CCN(c2cc(N3CCC[C@@H](C(=O)NCCc4ccc(C(F)(F)F)cc4)C3)nc(C(F)(F)F)n2)CC1 [Compound 337, (R)-1-(6-(4-(2-methoxyacetyl)piperazin-1-yl)-2-(trifluoromethyl)pyrimidin-4-yl)-N-(4-(trifluoromethyl)phenethyl)piperidine-3-carboxamide] | 100 to 999 nM | – | < 100 nM | – | – |
